For one experiment, the system named is HepG2 cells. Description: Cellular uptake assay of AF488-labeled antibody (HepG2). It is filed as cell-based. On the procedure: The cellular uptake assay is designed to measure compound-mediated cellular uptake of fluorescently labeled antibody following ternary complex formation with the ASGPR receptor and endocytosis of the entire complex into cells.
Human IgG (Sigma-Aldrich, 14506) was covalently labeled with Alexa Fluor 488 using the Alexa Fluor™ 488 Protein Labeling Kit (Thermo Fisher, A10235) following the manufacturer's instructions. HepG2 cells were plated in DMEM supplemented with 10% FBS at 5,000 cells per well in a 96-well microtiter plate and incubated for approximately 18 hours at 37° C./5% CO2. For studies using human IgG, 100 nM AF488-labeled human IgG antibodies and serial dilutions of IgG-based degrader (0.1% DMSO final concentration) were added to the cells and the mixture was incubated at 37° C. for 6 hours. For studies using DNP, 100 nM AF488-labeled DNP antibodies and serial dilutions of DNP-based degrader (0.1% DMSO final concentration) were added to the cells and the mixture was incubated at 37° C. for 6 hours. HepG2 cells were fixed in 100% methanol at −20° C. for 20 min, washed 3× with PBS, then stained with DAPI (Thermo, Cat #H3570). HepG2 cells were imaged for DAPI and Alexa Fluor 488 using the Operetta CLS, high-content analysis system (PerkinElmer). Data is presented as the ratio of the number of cells positive for hIgG or DNP (AF-488 fluorescence) over the total cell number (measured by DAPI).

The next experiment concerns the target IgG. Description: Affinity to IgG by surface plasmon resonance (SPR). The experiment is classed as binding. On the procedure: Immobilization levels ranging from 1000-1300 resonance units (RU) are obtained. The running buffer is 10 mM HEPES, pH 7.4, 400 mM NaCl, 0.005% P20, […].
A further experiment deals with T1, ASGPR (Homo sapiens, UniProt P07306).
T1 sequence (P07306 1-291): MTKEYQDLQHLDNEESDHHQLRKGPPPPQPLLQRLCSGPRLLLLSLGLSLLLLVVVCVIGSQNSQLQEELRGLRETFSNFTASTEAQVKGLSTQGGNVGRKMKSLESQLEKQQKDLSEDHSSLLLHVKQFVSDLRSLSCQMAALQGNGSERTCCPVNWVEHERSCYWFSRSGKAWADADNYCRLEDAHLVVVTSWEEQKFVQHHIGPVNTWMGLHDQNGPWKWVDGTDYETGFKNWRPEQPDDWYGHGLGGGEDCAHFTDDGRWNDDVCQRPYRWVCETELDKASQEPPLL
Description: Affinity to ASGPR by surface plasmon resonance (SPR).

The mark [1] stands for this setting: HepG2 cells, 100 nM AF488-labeled antibody, 37° C. for 6 hours, class symbols, read-out: Uptake Assay EC50.
The mark [2] stands for this setting: Biacore 8K, 25° C., IgG on CM5 chip, read-out: IgG SPR Binding Kd.

Like-named read-outs stand apart in the source and are kept apart here. Where a SMILES comes first, the peptide text is derived from it. Bridges are numbered along the chain shown (N, C = ends). [ ]: non-standard residue; d: D form. Pro(4S-NH2) = N[C@@H]1CN[C@H](C(=O)O)C1; hSer = N[C@@H](CCO)C(=O)O

`CC(C)C[C@@H]1NC(=O)[C@H](Cc2c[nH]cn2)NC(=O)[C@H](Cc2c[nH]c3ccccc23)NC(=O)[C@H](C)NC(=O)[C@@H]2CSSC[C@H](NC(=O)[C@H](Cc3c[nH]c4ccccc34)NC(=O)[C@H](C(C)C)NC(=O)[C@H](CC(C)C)NC(=O)[C@H](CCC(=O)O)NC(=O)CNC1=O)C(=O)N[C@@H]([C@@H](C)O)C(=O)N1CCC[C@@H]1C(=O)N1C[C@@H](NC(=O)CCOCCOCCNC(=O)CCCc3cn(CCCCCC(=O)NC(COCCC(=O)NCCOCCOCCOCCOC[C@H]4OC[C@H](Nc5nccc(C(F)(F)F)n5)[C@@H](O)[C@H]4O)COCCC(=O)NCCOCCOCCOCCOC[C@H]4OC[C@H](Nc5nccc(C(F)(F)F)n5)[C@@H](O)[C@H]4O)nn3)C[C@H]1C(=O)N[C@@H](CC(=O)O)C(=O)N2` [Compound 12]: in the experiment on HepG2 cells (setting [1]), the EC50 is under 100 nM.

For `CC(C)C[C@@H]1NC(=O)[C@H](Cc2c[nH]cn2)NC(=O)[C@H](Cc2c[nH]c3ccccc23)NC(=O)[C@H](C)NC(=O)[C@@H]2CSSC[C@H](NC(=O)[C@H](Cc3c[nH]c4ccccc34)NC(=O)[C@H](C(C)C)NC(=O)[C@H](CC(C)C)NC(=O)[C@H](CCC(=O)O)NC(=O)CNC1=O)C(=O)N[C@@H]([C@@H](C)O)C(=O)N1CCC[C@@H]1C(=O)N1C[C@@H](NC(=O)CCOCCOCCNC(=O)CCCc3cn(CCCCCC(=O)NC(COCCC(=O)NCCOCCOCCOCCOC[C@@]45CO[C@@H](O4)[C@H](Nc4nc(Cl)ns4)[C@@H](O)[C@H]5O)COCCC(=O)NCCOCCOCCOCCOC[C@@]45CO[C@@H](O4)[C@H](Nc4nc(Cl)ns4)[C@@H](O)[C@H]5O)nn3)C[C@H]1C(=O)N[C@@H](CC(=O)O)C(=O)N2` [Compound 17], in the experiment with HepG2 cells (setting [1]), the EC50 is under 100 nM. On IgG (setting [2]), the Kd was under 100 nM.

With `CC(C)C[C@@H]1NC(=O)[C@H](Cc2cnc[nH]2)NC(=O)[C@H](Cc2c[nH]c3ccccc23)NC(=O)[C@H](C)NC(=O)[C@@H]2CSSC[C@H](NC(=O)[C@H](Cc3c[nH]c4ccccc34)NC(=O)[C@H](C(C)C)NC(=O)[C@H](CC(C)C)NC(=O)[C@H](CCC(=O)O)NC(=O)CNC1=O)C(=O)N[C@@H]([C@@H](C)O)C(=O)N1CCC[C@@H]1C(=O)N1C[C@@H](NC(=O)CCCc3cn(C[C@H]4OC[C@H](Nc5nccc(C(F)(F)F)n5)[C@@H](O)[C@H]4O)nn3)C[C@H]1C(=O)N[C@@H](CC(=O)O)C(=O)N2` [Compound 80], the Kd is over 1000 nM on ASGPR and under 100 nM on IgG (SPR, read-out: IgG KD).

On to `CC(C)C[C@@H]1NC(=O)[C@H](Cc2c[nH]cn2)NC(=O)[C@H](Cc2c[nH]c3ccccc23)NC(=O)[C@H](C)NC(=O)[C@@H]2CSSC[C@H](NC(=O)[C@H](Cc3c[nH]c4ccccc34)NC(=O)[C@H](C(C)C)NC(=O)[C@H](CC(C)C)NC(=O)[C@H](CCC(=O)O)NC(=O)CNC1=O)C(=O)N[C@@H]([C@@H](C)O)C(=O)N1CCC[C@@H]1C(=O)N1C[C@@H](NC(=O)CCOCCOCCOCCOCCNC(=O)CCCc3cn(CCCCCC(=O)NC(COCCC(=O)NCCOCCOCCOCCOC[C@@]45CO[C@@H](O4)[C@H](Nc4nc(Cl)ns4)[C@@H](O)[C@H]5O)COCCC(=O)NCCOCCOCCOCCOC[C@@]45CO[C@@H](O4)[C@H](Nc4nc(Cl)ns4)[C@@H](O)[C@H]5O)nn3)C[C@H]1C(=O)N[C@@H](CC(=O)O)C(=O)N2` [Compound 14], for which the EC50 with HepG2 cells (setting [1]) is under 100 nM.

As for `CC(C)C[C@@H]1NC(=O)[C@H](Cc2c[nH]cn2)NC(=O)[C@H](Cc2c[nH]c3ccccc23)NC(=O)[C@H](C)NC(=O)[C@@H](NC(=O)[C@H](CC(=O)O)NC(=O)CCOCCOCCOCCOCCNC(=O)CCCc2cn(CCCCCC(=O)NC(COCCC(=O)NCCOCCOCCOCCOC[C@H]3OC[C@H](Nc4nccc(C(F)(F)F)n4)[C@@H](O)[C@H]3O)COCCC(=O)NCCOCCOCCOCCOC[C@H]3OC[C@H](Nc4nccc(C(F)(F)F)n4)[C@@H](O)[C@H]3O)nn2)CSSC[C@@H](C(=O)N[C@H](C(N)=O)[C@@H](C)O)NC(=O)[C@H](Cc2c[nH]c3ccccc23)NC(=O)[C@H](C(C)C)NC(=O)[C@H](CC(C)C)NC(=O)[C@H](CCC(=O)O)NC(=O)CNC1=O` [Compound 22], the EC50 in the experiment on HepG2 cells (read-out: Uptake Assay EC50) and in the experiment with HepG2 cells (read-out: Uptake EC50) was under 100 nM each time. Further, the Kd at IgG (read-out: IgG KD) and at IgG (read-out: IgG SPR Binding Kd) was under 100 nM each time.

Take `CNC(=O)CC[C@@H]1NC(=O)CNC(=O)[C@H](CC(C)C)NC(=O)[C@H](Cc2cnc[nH]2)NC(=O)[C@H](Cc2c[nH]c3ccccc23)NC(=O)[C@H](C)NC(=O)[C@@H]2CSSC[C@H](NC(=O)[C@H](Cc3c[nH]c4ccccc34)NC(=O)[C@H](C(C)C)NC(=O)[C@H](CC(C)C)NC1=O)C(=O)N[C@@H]([C@@H](C)O)C(=O)N1CCC[C@@H]1C(=O)N1C[C@@H](N)C[C@H]1C(=O)N[C@@H](CC(=O)O)C(=O)N2` [Intermediate 22]: the Kd at IgG (setting [2]) was under 100 nM; on IgG (SPR, read-out: IgG KD), under 100 nM.

With `CC(C)C[C@@H]1NC(=O)[C@H](Cc2cnc[nH]2)NC(=O)[C@H](Cc2c[nH]c3ccccc23)NC(=O)[C@H](C)NC(=O)[C@@H]2CSSC[C@H](NC(=O)[C@@H](Cc3c[nH]c4ccccc34)NC(=O)[C@H](C(C)C)NC(=O)[C@H](CC(C)C)NC(=O)[C@H](CCC(=O)O)NC(=O)CNC1=O)C(=O)N[C@@H]([C@@H](C)O)C(=O)N1CCC[C@@H]1C(=O)N1C[C@@H](N)C[C@H]1C(=O)N[C@@H](CC(=O)O)C(=O)N2` (stereo in doubt) [Intermediate 24], the Kd on IgG (setting [2]) is under 100 nM; at IgG (SPR, read-out: IgG KD), under 100 nM.

As to `CC(C)C[C@@H]1NC(=O)[C@H](Cc2cnc[nH]2)NC(=O)[C@H](Cc2c[nH]c3ccccc23)NC(=O)[C@H](C)NC(=O)[C@@H]2CC/C=C/C[C@H](NC(=O)[C@H](Cc3c[nH]c4ccccc34)NC(=O)[C@H](C(C)C)NC(=O)[C@H](CC(C)C)NC(=O)[C@H](CCC(=O)O)NC(=O)CNC1=O)C(=O)N[C@@H]([C@@H](C)O)C(=O)N1CCC[C@@H]1C(=O)N1CCC[C@H]1C(=O)N[C@@H](CC(=O)O)C(=O)N2`, the Kd at IgG (SPR, read-out: IgG KD) was under 100 nM.

With `CC(C)C[C@@H]1NC(=O)[C@H](Cc2c[nH]cn2)NC(=O)[C@H](Cc2c[nH]c3ccccc23)NC(=O)[C@H](C)NC(=O)[C@@H]2CSSC[C@H](NC(=O)[C@H](Cc3c[nH]c4ccccc34)NC(=O)[C@H](C(C)C)NC(=O)[C@H](CC(C)C)NC(=O)[C@H](CCC(=O)O)NC(=O)CNC1=O)C(=O)N[C@@H]([C@@H](C)O)C(=O)N1CCC[C@@H]1C(=O)N1C[C@@H](NC(=O)CCOCCOCCNC(=O)CCCc3cn(C[C@@]45CO[C@@H](O4)[C@H](Nc4nc(Cl)ns4)[C@@H](O)[C@H]5O)nn3)C[C@H]1C(=O)N[C@@H](CC(=O)O)C(=O)N2` [Compound 13], in the experiment on HepG2 cells (setting [1]), the EC50 is 100 to 500 nM.

Take `CC(C)C[C@@H]1NC(=O)[C@H](Cc2cnc[nH]2)NC(=O)[C@H](Cc2c[nH]c3ccccc23)NC(=O)[C@H](C)NC(=O)[C@@H]2CSSC[C@H](NC(=O)[C@H](Cc3c[nH]c4ccccc34)NC(=O)[C@H](C(C)C)NC(=O)[C@H](CC(C)C)NC(=O)[C@H](CCC(=O)N(C)C)NC(=O)CNC1=O)C(=O)N[C@@H]([C@@H](C)O)C(=O)N1CCC[C@@H]1C(=O)N1C[C@@H](N)C[C@H]1C(=O)N[C@@H](CC(=O)O)C(=O)N2` [Intermediate 23]: the Kd at IgG (setting [2]) was under 100 nM; at IgG (SPR, read-out: IgG KD), under 100 nM.

For `CC(C)C[C@@H]1NC(=O)[C@H](Cc2cnc[nH]2)NC(=O)[C@H](Cc2c[nH]c3ccccc23)NC(=O)[C@H](C)NC(=O)[C@@H]2CSSC[C@H](NC(=O)[C@H](Cc3c[nH]c4ccccc34)NC(=O)[C@H](C(C)C)NC(=O)[C@H](CC(C)C)NC(=O)[C@H](CCC(=O)N(C)C)NC(=O)CNC1=O)C(=O)N[C@@H]([C@@H](C)O)C(=O)N1CCC[C@@H]1C(=O)N1C[C@@H](N)C[C@H]1C(=O)N[C@@H](CC(N)=O)C(=O)N2` [Intermediate 27] (cyclo(AWHLGE(NMe2)LVWCT[dP][Pro(4S-NH2)]NC); disulfide 10-15), the Kd is under 100 nM on IgG (setting [2]) and under 100 nM on IgG (SPR, read-out: IgG KD).

Turning to `CC(C)C[C@@H]1NC(=O)[C@H](Cc2cnc[nH]2)NC(=O)[C@H](Cc2c[nH]c3ccccc23)NC(=O)[C@H](CCO)NC(=O)[C@@H]2CSSC[C@H](NC(=O)[C@H](Cc3c[nH]c4ccccc34)NC(=O)[C@H](C(C)C)NC(=O)[C@H](CC(C)C)NC(=O)[C@H](CCC(=O)O)NC(=O)CNC1=O)C(=O)N[C@@H]([C@@H](C)O)C(=O)N1CCC[C@@H]1C(=O)N1C[C@@H](N)C[C@H]1C(=O)N[C@@H](CC(=O)O)C(=O)N2` [Intermediate 21] (cyclo(CT[dP][Pro(4S-NH2)]DC[hSer]WHLGELVW); disulfide 1-6), the Kd was under 100 nM at IgG (setting [2]) and under 100 nM on IgG (SPR, read-out: IgG KD).

These data come from patent publication US12091402B2 (Avilar Therapeutics, Inc., priority 2021, dated 2024).
